The record followed here is patent US9670227B2, “Thienopyrimidine derivatives, a process for their preparation and pharmaceutical compositions containing them” (LES LABORATOIRES SERVIER, priority 2013, dated 2017).

Structures are written as SMILES.

The assay deals with Mcl-1 protein (UniProtKB primary accession number: Q07820) (Homo sapiens, UniProt Q07820). The experiment in a line: Inhibition of Mcl-1 by fluorescence polarisation, Method 1. To be noted: fluorescence polarisation test; Method 2 values are underlined in the patent (underlining not visible here); read-out: IC50 (M) Mcl-1 FP. The format is binding. The method, then:
The relative binding potency of each compound was determined via Fluorescence Polarisation (FP).
An 11 point serial dilution of each compound was prepared in DMSO and 2 μl transferred into flat bottomed, low binding, 384-well plate (final DMSO concentration 5%). 38 μl of buffer (10 mM 4-(2-hydroxyethyl)-1-piperazineethanesulfonic acid [HEPES], 150 mM NaCl, 0.05% Tween 20, pH 7.4), containing the Fluorescein labelled ligand (final concentration 1 nM) and Mcl-1 protein (final concentration 5 nM) was then added.

Chain of Mcl-1 protein (Q07820 whole entry): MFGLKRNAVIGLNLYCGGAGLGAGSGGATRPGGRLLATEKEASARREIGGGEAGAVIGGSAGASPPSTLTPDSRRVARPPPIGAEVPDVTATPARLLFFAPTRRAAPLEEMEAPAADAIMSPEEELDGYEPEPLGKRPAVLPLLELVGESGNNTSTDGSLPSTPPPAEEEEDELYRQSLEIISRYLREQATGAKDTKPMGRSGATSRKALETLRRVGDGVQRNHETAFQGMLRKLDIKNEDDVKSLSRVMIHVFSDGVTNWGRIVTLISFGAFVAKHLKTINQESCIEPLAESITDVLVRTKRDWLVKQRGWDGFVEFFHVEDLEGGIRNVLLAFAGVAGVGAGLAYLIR

In the case of `Cc1c(-c2c(-c3ccc(F)cc3)sc3ncnc(OC(Cc4ccccc4OCc4ccnc(-c5ccncc5)n4)C(=O)O)c23)ccc(OCCN2CCN(C)CC2)c1Cl` [Example 34, (2R)-2-{[(5Sa)-5-{3-chloro-2-methyl-4-[2-(4-methylpiperazin-1-yl)ethoxy]phenyl}-6-(4-fluorophenyl)thieno[2,3-d]pyrimidin-4-yl]oxy}-3-(2-{[2-(pyridin-4-yl)pyrimidin-4-yl]methoxy}phenyl)propanoic acid], the half-inhibitory concentration (IC50) turned out to be 3.3e-09 M. Take `COCCc1nccc(COc2ccccc2CC(Oc2ncnc3sc(-c4ccc(F)cc4)c(-c4ccc(OCCN5CCN(C)CC5)c(Cl)c4C)c23)C(=O)O)n1` [Example 44, (2R)-2-{[(5Sa)-5-{3-chloro-2-methyl-4-[2-(4-methylpiperazin-1-yl)ethoxy]phenyl}-6-(4-fluorophenyl)thieno[2,3-d]pyrimidin-4-yl]oxy}-3-(2-{[2-(2-methoxyethyl)pyrimidin-4-yl]methoxy}phenyl)propanoic acid]: the concentration for half-maximal inhibition (IC50) is 4.8e-09 M. On to `Cc1c(-c2c(-c3ccc(F)cc3)sc3ncnc(OC(Cc4ccccc4OCc4ccnc(N5CCOCC5)n4)C(=O)O)c23)ccc(OCCN2CCN(C)CC2)c1Cl` [Example 52, (2R)-2-{[(5Sa)-5-{3-chloro-2-methyl-4-[2-(4-methylpiperazin-1-yl)ethoxy]phenyl}-6-(4-fluorophenyl)thieno[2,3-d]pyrimidin-4-yl]oxy}-3-(2-{[2-(morpholin-4-yl)pyrimidin-4-yl]methoxy}phenyl)propanoic acid], for which the IC50 turned out to be 5.6e-09 M. The result for `COc1nccc(COc2ccccc2CC(Oc2ncnc3sc(-c4ccc(F)cc4)c(-c4ccc(OCCN5CCN(C)CC5)c(Cl)c4C)c23)C(=O)O)n1` [Example 54, (2R)-2-{[(5Sa)-5-{3-chloro-2-methyl-4-[2-(4-methylpiperazin-1-yl)ethoxy]phenyl}-6-(4-fluorophenyl)thieno[2,3-d]pyrimidin-4-yl]oxy}-3-{2-[(2-methoxypyrimidin-4-yl)methoxy]phenyl}propanoic acid] reads 5.7e-09 M.

With `Cc1c(-c2c(-c3ccc(F)cc3)sc3ncnc(O[C@H](Cc4ccccc4OCc4ccnn4C)C(=O)O)c23)ccc(OCCN2CCN(C)CC2)c1Cl` [Example 69, (2R)-2-{[(5Sa)-5-{3-chloro-2-methyl-4-[2-(4-methylpiperazin-1-yl)ethoxy]phenyl}-6-(4-fluorophenyl)thieno[2,3-d]pyrimidin-4-yl]oxy}-3-{2-[(1-methyl-1H-pyrazol-5-yl)methoxy]phenyl}propanoic acid], the 50% inhibitory concentration (IC50) was 9.7e-08 M.

For `Cc1c(-c2c(-c3ccc(F)cc3)sc3ncnc(OC(Cc4ccccc4OCc4ccnn4C(C)(C)C)C(=O)O)c23)ccc(OCCN2CCN(C)CC2)c1Cl` [Example 70, (2R)-3-{2-[(1-tert-butyl-1H-pyrazol-5-yl)methoxy]phenyl}-2-{[(5Sa)-5-{3-chloro-2-methyl-4-[2-(4-methylpiperazin-1-yl)ethoxy]phenyl}-6-(4-fluorophenyl)thieno[2,3-d]pyrimidin-4-yl]oxy}propanoic acid], the IC50 was determined as 1.6e-09 M. In the case of `Cc1c(-c2c(-c3ccc(F)cc3)sc3ncnc(OC(Cc4ccccc4OCc4ccnn4C(C)C)C(=O)O)c23)ccc(OCCN2CCN(C)CC2)c1Cl` [Example 71, (2R)-2-{[(5Sa)-5-{3-chloro-2-methyl-4-[2-(4-methylpiperazin-1-yl)ethoxy]phenyl}-6-(4-fluorophenyl)thieno[2,3-d]pyrimidin-4-yl]oxy}-3-(2-{[1-(propan-2-yl)-1H-pyrazol-5-yl]methoxy}phenyl)propanoic acid], the half-maximal inhibitory concentration (IC50) was 9.4e-09 M. In the case of `CCn1nccc1COc1ccccc1CC(Oc1ncnc2sc(-c3ccc(F)cc3)c(-c3ccc(OCCN4CCN(C)CC4)c(Cl)c3C)c12)C(=O)O` [Example 76, (2R)-2-{[(5Sa)-5-{3-chloro-2-methyl-4-[2-(4-methylpiperazin-1-yl)ethoxy]phenyl}-6-(4-fluorophenyl)thieno[2,3-d]pyrimidin-4-yl]oxy}-3-{2-[(1-ethyl-1H-pyrazol-5-yl)methoxy]phenyl}propanoic acid], the IC50 is 1.6e-08 M. On to `Cc1c(-c2c(-c3ccc(F)cc3)sc3ncnc(OC(Cc4ccccc4OCc4ccnn4CC(F)(F)F)C(=O)O)c23)ccc(OCCN2CCN(C)CC2)c1Cl` [Example 77, (2R)-2-{[(5Sa)-5-{3-chloro-2-methyl-4-[2-(4-methylpiperazin-1-yl)ethoxy]phenyl}-6-(4-fluorophenyl)thieno[2,3-d]pyrimidin-4-yl]oxy}-3-(2-{[1-(2,2,2-trifluoroethyl)-1H-pyrazol-5-yl]methoxy}phenyl)propanoic acid], for which the 50% inhibitory concentration (IC50) came out at 5.9e-09 M. Take `CCCCn1nccc1COc1ccccc1CC(Oc1ncnc2sc(-c3ccc(F)cc3)c(-c3ccc(OCCN4CCN(C)CC4)c(Cl)c3C)c12)C(=O)O` [Example 83, (2R)-3-{2-[(1-butyl-1H-pyrazol-5-yl)methoxy]phenyl}-2-{[(5Sa)-5-{3-chloro-2-methyl-4-[2-(4-methylpiperazin-1-yl)ethoxy]phenyl}-6-(4-fluorophenyl)thieno[2,3-d]pyrimidin-4-yl]oxy}propanoic acid]: the IC50 came out at 5.1e-09 M. The result for `Cc1c(-c2c(-c3ccc(F)cc3)sc3ncnc(OC(Cc4ccccc4OCc4cnccn4)C(=O)O)c23)ccc(OCCN2CCN(C)CC2)c1Cl` [Example 91, (2R)-2-{[(5Sa)-5-{3-chloro-2-methyl-4-[2-(4-methylpiperazin-1-yl)ethoxy]phenyl}-6-(4-fluorophenyl)thieno[2,3-d]pyrimidin-4-yl]oxy}-3-[2-(pyrazin-2-ylmethoxy)phenyl]propanoic acid] reads 7.3e-09 M; that for `Cc1c(-c2c(-c3ccc(F)cc3)sc3ncnc(OC(Cc4ccccc4OCc4cncn4C)C(=O)O)c23)ccc(OCCN2CCN(C)CC2)c1Cl` [Example 92, (2R)-2-{[(5Sa)-5-{3-chloro-2-methyl-4-[2-(4-methylpiperazin-1-yl)ethoxy]phenyl}-6-(4-fluorophenyl)thieno[2,3-d]pyrimidin-4-yl]oxy}-3-{2-[(1-methyl-1H-imidazol-5-yl)methoxy]phenyl}propanoic acid], 1.2e-08 M. The result for `COc1ncc(Br)c(COc2ccccc2C[C@@H](Oc2ncnc3sc(-c4ccc(F)cc4)c(-c4ccc(OCCN5CCN(C)CC5)c(Cl)c4C)c23)C(=O)O)n1` [Example 99, (2R)-3-{2-[(5-bromo-2-methoxypyrimidin-4-yl)methoxy]phenyl}-2-{[(5Sa)-5-{3-chloro-2-methyl-4-[2-(4-methylpiperazin-1-yl)ethoxy]phenyl}-6-(4-fluorophenyl)thieno[2,3-d]pyrimidin-4-yl]oxy}propanoic acid] reads 2e-08 M. Take `COc1ncc(-c2ccsc2)c(COc2ccccc2CC(Oc2ncnc3sc(-c4ccc(F)cc4)c(-c4ccc(OCCN5CCN(C)CC5)c(Cl)c4C)c23)C(=O)O)n1` [Example 100, (2R)-2-{[(5Sa)-5-{3-chloro-2-methyl-4-[2-(4-methylpiperazin-1-yl)ethoxy]phenyl}-6-(4-fluorophenyl)thieno[2,3-d]pyrimidin-4-yl]oxy}-3-(2-{[2-methoxy-5-(thiophen-3-yl)pyrimidin-4-yl]methoxy}phenyl)propanoic acid]: the IC50 amounted to 1.2e-08 M. Regarding `Cc1c(-c2c(-c3ccc(F)cc3)sc3ncnc(OC(Cc4ccccc4OCc4nncn4C)C(=O)O)c23)ccc(OCCN2CCN(C)CC2)c1Cl` [Example 102, (2R)-2-{[(5Sa)-5-{3-chloro-2-methyl-4-[2-(4-methylpiperazin-1-yl)ethoxy]phenyl}-6-(4-fluorophenyl)thieno[2,3-d]pyrimidin-4-yl]oxy}-3-{2-[(4-methyl-4H-1,2,4-triazol-3-yl)methoxy]phenyl}propanoic acid], the IC50 came out at 9.5e-09 M. `Cc1ccccc1-c1nccc(COc2ccccc2CC(Oc2ncnc3sc(-c4ccc(F)cc4)c(-c4ccc(OCCN5CCN(C)CC5)c(Cl)c4C)c23)C(=O)O)n1` [Example 113, (2R)-2-{[(5Sa)-5-{3-chloro-2-methyl-4-[2-(4-methylpiperazin-1-yl)ethoxy]phenyl}-6-(4-fluorophenyl)thieno[2,3-d]pyrimidin-4-yl]oxy}-3-(2-{[2-(2-methylphenyl)pyrimidin-4-yl]methoxy}phenyl)propanoic acid]: the IC50 is 2.6e-09 M. Consider `Cc1c(-c2c(-c3ccc(F)cc3)sc3ncnc(OC(Cc4ccccc4OCc4ccnc(-c5ccco5)n4)C(=O)O)c23)ccc(OCCN2CCN(C)CC2)c1Cl` [Example 117, (2R)-2-{[(5Sa)-5-{3-chloro-2-methyl-4-[2-(4-methylpiperazin-1-yl)ethoxy]phenyl}-6-(4-fluorophenyl)thieno[2,3-d]pyrimidin-4-yl]oxy}-3-(2-{[2-(furan-2-yl)pyrimidin-4-yl]methoxy}phenyl)propanoic acid], for which the IC50 came to 6.1e-09 M. On to `Cc1cnccc1-c1nccc(COc2ccccc2CC(Oc2ncnc3sc(-c4ccc(F)cc4)c(-c4ccc(OCCN5CCN(C)CC5)c(Cl)c4C)c23)C(=O)O)n1` [Example 120, (2R)-2-{[(5Sa)-5-{3-chloro-2-methyl-4-[2-(4-methylpiperazin-1-yl)ethoxy]phenyl}-6-(4-fluorophenyl)thieno[2,3-d]pyrimidin-4-yl]oxy}-3-(2-{[2-(3-methylpyridin-4-yl)pyrimidin-4-yl]methoxy}phenyl)propanoic acid], for which the IC50 turned out to be 3.8e-09 M.

`Cc1ccncc1-c1nccc(COc2ccccc2CC(Oc2ncnc3sc(-c4ccc(F)cc4)c(-c4ccc(OCCN5CCN(C)CC5)c(Cl)c4C)c23)C(=O)O)n1` [Example 123, (2R)-2-{[(5Sa)-5-{3-chloro-2-methyl-4-[2-(4-methylpiperazin-1-yl)ethoxy]phenyl}-6-(4-fluorophenyl)thieno[2,3-d]pyrimidin-4-yl]oxy}-3-(2-{[2-(4-methylpyridin-3-yl)pyrimidin-4-yl]methoxy}phenyl)propanoic acid]: the IC50 was 4.3e-09 M.
